Test results taken from US8889126B2, “Methods and compositions for treating neuropathies” (Washington University, priority 2004, dated 2014).

Assays:
DRG explant neurons = experiment: in vitro Wallerian degeneration assay: DRG explant cultures, axonal transection by removal of neuronal cell bodies; format: cell-based, mouse; details: lentivirus-infected DRG neurons
Procedure: To identify the mechanism of delayed axonal degeneration mediated by the Wld^s protein, we employed an in-vitro Wallerian degeneration model. Primary DRG explant neurons were infected with lentivirus expressing the appropriate proteins, and axons were injured by either removal of the neuronal cell body (transection) or growth in vincristine (toxic).
Mouse DRG explants from E12.5 embryos were cultured in the presence of 1 nM nerve growth factor. Non-neuronal cells were removed from the cultures by adding 5-fluorouracil to the culture medium. Transection of neurites was performed at 10-20 DIV using an 18-gauge needle to remove the neuronal cell bodies. Incubation with β-nicotinamide adenine dinucleotide (Sigma) or Sirtinol (Calbiochem) was performed using conditions indicated in the text or figures.
Lentiviral expression vectors were generated using HEK293T cells as described above. For confirmation of lentivirus-derived protein expression, HEK293T cells were infected with lentivirus and cells were lysed 3 days after infection. These lysates were analyzed by immunoblot to using anti-His tag monoclonal antibody (Qiagen) to detect expression of the respective hexahistidine-tagged proteins. Lentiviral infection of DRG neurons was performed by incubating ˜10^6-10^7 pfu/ml virus with the DRG explant for 24 h beginning 3-7 days prior to axonal transection. The infected neurons were examined under an inverted fluorescent microscope to insure detectable lentivirus-mediated transgene expression in >95% of neurons.
Quantitative analysis of axonal degeneration was performed as previously described (Zhai, et al., Neuron 39:217-25, 2003). Briefly, the cultures were examined using phase contrast microscopy at the indicated times. Axons with a fragmented, non-refractile appearance were designated as “degenerated.” At each time point, at least 200 singly distinguishable axons were blindly scored from several randomly taken images of each culture. Each condition was tested in triplicate explants in each experiment. Results were obtained from 2-4 independent experiments for each condition. Statistical analysis was performed by Student's T test. For calculations of neurite-covered area, digitally captured images from quadruplicate samples of two independent experiments were analyzed using analysis 3.1 software (Soft Imaging System, Lakewood, Colo.).
Cell culture, in vitro axotomy, and quantification of axonal degeneration. Mouse DRG explants from E12.5 embryos were cultured in the DMEM containing 10% FCS and 1 nM nerve growth factor. Non-neuronal cells were removed from the cultures by adding 5-fluorouracil to the culture media. Transection of neurites was performed at 14-21 DIV using an 18-gauge needle to remove the neuronal cell bodies. Lentiviral expression vectors were generated. Lentiviral infection was performed 3-7 days prior to axonal transection for 24 hr. Quantitative analysis of neurite degeneration was performed.

[1] = system: NAD generated after 1 hour at 37 deg; experiment: relative NMNAT enzymatic activity of affinity purified 6xHis-tagged proteins from HEK293T cells; format: biochemical; details: affinity purified protein, normalized to protein concentration
Procedure: NMNAT protein overexpression, affinity purification and enzymatic assay. HEK293T cells were transfected with an expression plasmid for each enzyme by using calcium phosphate precipitation. Three days later, cells were washed with PBS twice and then suspended in the buffer containing 50 mM Sodium Phosphate (pH8.0), and 300 mM NaCl (buffer A). Cells were then homogenized by SONIFIRE 450 (BRANSON) and supernatant was collected by centrifugation at 10,000 g for 10 min. […] Relative NMNAT enzymatic activity was measured by using affinity purified proteins as described before and subtracted the value obtained from mock transfected cells and normalized by the amount of recombinant protein determined by densitometry.
Next we confirmed enzymatic activity of cytNMNAT1, NMNAT1 and its mutant cytNMNAT1 were purified from the cell lysate expressing either of proteins by using affinity gel. […] We expressed hexa-histidine tagged NMNAT3 or nucNMNAT3 in HEK293T cells and analyzed subcellular localization and its enzymatic activity. […] In these investigations, the amount of NAD generated after 1 hour at 37 deg was converted NADH, quantified and normalized to protein concentration. […] FIG. 7E presents a quantitative analysis of remaining neurite numbers at 12, 24, 48, and 72 hours after axotomy. […]

NMNAT3: murine nicotinamide mononucleotide adenylyltransferase3
axonal degeneration after transection in neurons expressing the construct (DRG explant neurons): same extent of delay in neurite degeneration as well as NMNAT1
enzymatic activity (relative NMNAT activity) [1]: comparable enzymatic activity compared with NMNAT1
